According to PubChem BioAssay AID2060359 (Molecular Pharmacology Branch, DTP, NCI, 2025):

Tested on: 276233-004-R-J1-PDC spheroids with HUVEC/MSC, viability
Assay: Anticancer human tumor 276233-004-R-J1-PDC patient-derived colon adenocarcinoma cell line growth inhibition [TAK]
Conditions: for IC50: curve of first compound; for viability, T/C: stronger effect = lower value
Excerpt: Combinatorial screen of targeted agents with TAK-243 and ipatasertib in multi-cell type tumor spheroids
A high-throughput screen of multi-cell type tumor spheroids was designed to identify active combinations of targeted small molecules and TAK-243 or ipatasertib. Complex spheroids include a stromal component modeled by human endothelial cells (HUVEC) and fibroblasts modeled by human mesenchymal stem cells (MSCs). The concentration ranges selected for each drug and investigational agent were based upon clinically achievable concentrations if the clinical Cmax of the agent was known.
Compounds. The drugs and investigational agents: TAK-243 (785004), ipatasertib (767898), everolimus (733504), selumetinib (741078), bortezomib (756655), trametinib (758246), ixazomib (758254), vemurafenib (761431), dabrafenib (764134), sapanisertib (764658), alpelisib (765974), and copanlisib (816437), were obtained from the National Cancer Institute (NCI) Developmental Therapeutics Program Chemical Repository. The FDA-approved anticancer drug set is available from the NCI Developmental Therapeutics Program. […] The stock solutions were prepared in dimethyl sulfoxide (DMSO, Sigma-Aldrich, St. Louis, MO, cat. D2650) at 800-fold the tested concentration and stored at -70 degrees C prior to their use. All drugs and investigational agents were tested over a range starting from a high concentration at or near the clinical Cmax and decreasing in half-log increments. If the clinical Cmax for an agent had not been determined, the highest concentration tested was 10 microM.
NCI60 Cell Culture. NCI60 cell lines were obtained from the NCI Developmental Therapeutics Program Tumor Repository. For each lot of cells, the Repository performed Applied Biosystems AmpFLSTR Identifiler testing with PCR amplification to confirm consistency with the published Identifier STR profile for each cell line. Cells were kept in continuous culture for no more than 20 passages. The optimal seeding densities for each of the cell lines at each time point assessed were determined prior to performing the concentration response studies. Briefly, the NCI60 human tumor lines were grown as monolayers in RPMI 1640 medium supplemented with 10% FBS and 2 mmol/L L-glutamine.
An additional 2 lines were from the NCI60 cell line panel including melanomas, MALME-3M and SK-MEL-2. Pooled donor human umbilical vein endothelial cells (HUVEC, Lonza, cat. CC-2519) and human mesenchymal stem cells (hMSC, Lonza, cat. PT-2501) were purchased from Lonza (Walkersville, MD).
PDMR cell lines were grown in complete medium (DC medium): Dulbecco's modified Eagle's medium (DMEM)/F12 supplemented with 5% fetal bovine serum (FBS), 2 mM L-glutamine, 100 U/mL penicillin and 100 µg/ml streptomycin, 0.4 µg/ml hydrocortisone, 10 ng/ml epidermal growth factor (EGF) recombinant human protein, 24 µg/mL adenine, and 0.1 mg/mL primocin. During culture from frozen stock vials, PDMR cells were cultured in the same medium containing 10 µM Y-27632 (see Table 3). The PDCs were cultured in complete DMEM/F12 media without 10 microM Y-27632 dihydrochloride for at least two passages prior to the screen. The pooled donor HUVEC and hMSC were cultured in endothelial cell growth medium 2 (PromoCell, Heidelberg, Germany, cat. C-22011) and mesenchymal stem cell growth medium 2 (PromoCell, cat. C-28009), respectively. For all experiments, HUVEC and hMSC were used at passages </=5.
For the pre-screen, cell seeding densities were determined from a titration spanning the range from 5,000 to 313 cells per well. The mct-spheroids including 60% malignant cells, 25% HUVEC and 15% MSC dispensed as a mixture into U-bottom Ultra-Low Attachment 384-well plates (Corning, NY)
High-throughput Drug Combination Screening.
Prior to their inoculation into 384-well plates, malignant cells, HUVEC, and hMSC were removed from T flasks using TrypLE express (Thermo Fisher Scientific, cat. 12605036) and harvested by centrifugation for 5 min at 233 x g. […]

[1] = second compound 0.3 µM, first compound 0.0316 µM
[2] = second compound 0.3 µM, first compound 0.1 µM
[3] = second compound 0.3 µM, first compound 0.316 µM
[4] = second compound 0.3 µM, first compound 1 µM
[5] = second compound 0.3 µM, first compound 3.16 µM
[6] = second compound 0.3 µM, first compound 10 µM
[7] = second compound 0.949 µM, first compound 0.0316 µM
[8] = second compound 0.949 µM, first compound 0.1 µM
[9] = second compound 0.949 µM, first compound 0.316 µM
[10] = second compound 0.949 µM, first compound 1 µM
[11] = second compound 0.949 µM, first compound 3.16 µM
[12] = second compound 0.949 µM, first compound 10 µM
[13] = second compound 3 µM, first compound 0.0316 µM
[14] = second compound 3 µM, first compound 0.1 µM
[15] = second compound 3 µM, first compound 0.316 µM
[16] = second compound 3 µM, first compound 1 µM
[17] = second compound 3 µM, first compound 3.16 µM
[18] = second compound 3 µM, first compound 10 µM
[19] = second compound 9.49 µM, first compound 0.0316 µM
[20] = second compound 9.49 µM, first compound 0.1 µM
[21] = second compound 9.49 µM, first compound 0.316 µM
[22] = second compound 9.49 µM, first compound 1 µM
[23] = second compound 9.49 µM, first compound 3.16 µM
[24] = second compound 9.49 µM, first compound 10 µM
[25] = second compound 30 µM, first compound 0.0316 µM
[26] = second compound 30 µM, first compound 0.1 µM
[27] = second compound 30 µM, first compound 0.316 µM
[28] = second compound 30 µM, first compound 1 µM
[29] = second compound 30 µM, first compound 3.16 µM
[30] = second compound 30 µM, first compound 10 µM
[31] = second compound 0.3 µM, first compound 0.000316 µM
[32] = second compound 0.3 µM, first compound 0.001 µM
[33] = second compound 0.3 µM, first compound 0.00316 µM
[34] = second compound 0.3 µM, first compound 0.01 µM
[35] = second compound 0.949 µM, first compound 0.000316 µM
[36] = second compound 0.949 µM, first compound 0.001 µM
[37] = second compound 0.949 µM, first compound 0.00316 µM
[38] = second compound 0.949 µM, first compound 0.01 µM
[39] = second compound 3 µM, first compound 0.000316 µM
[40] = second compound 3 µM, first compound 0.001 µM
[41] = second compound 3 µM, first compound 0.00316 µM
[42] = second compound 3 µM, first compound 0.01 µM
[43] = second compound 9.49 µM, first compound 0.000316 µM
[44] = second compound 9.49 µM, first compound 0.001 µM
[45] = second compound 9.49 µM, first compound 0.00316 µM
[46] = second compound 9.49 µM, first compound 0.01 µM
[47] = second compound 30 µM, first compound 0.000316 µM
[48] = second compound 30 µM, first compound 0.001 µM
[49] = second compound 30 µM, first compound 0.00316 µM
[50] = second compound 30 µM, first compound 0.01 µM
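Note: spheroids exposed to drugs for seven days before the viability read.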

## CC(C)(C)c1nc(-c2cccc(NS(=O)(=O)c3c(F)cccc3F)c2F)c(-c2ccnc(N)n2)s1 + CC(C)NCC(C(=O)N1CCN(c2ncnc3c2C(C)CC3O)CC1)c1ccc(Cl)cc1
Second compound 0.3 µM
  IC50: > 10000 nM
Second compound 0.949 µM
  IC50: > 10000 nM
Second compound 3 µM
  IC50: > 10000 nM
Second compound 9.49 µM
  IC50: > 10000 nM
Second compound 30 µM
  IC50: > 10000 nM
[1]
  viability, T/C: 109%
[2]
  viability, T/C: 92.8%
[3]
  viability, T/C: 110%
[4]
  viability, T/C: 90.7%
[5]
  viability, T/C: 65.1%
[6]
  viability, T/C: 82.6%
[7]
  viability, T/C: 101%
[8]
  viability, T/C: 96.4%
[9]
  viability, T/C: 86.8%
[10]
  viability, T/C: 84.4%
[11]
  viability, T/C: 73.8%
[12]
  viability, T/C: 71.8%
[13]
  viability, T/C: 80.6%
[14]
  viability, T/C: 78.3%
[15]
  viability, T/C: 91.1%
[16]
  viability, T/C: 61.1%
[17]
  viability, T/C: 63.5%
[18]
  viability, T/C: 65.5%
[19]
  viability, T/C: 73.2%
[20]
  viability, T/C: 78.8%
[21]
  viability, T/C: 68.2%
[22]
  viability, T/C: 64.7%
[23]
  viability, T/C: 83.1%
[24]
  viability, T/C: 57%
[25]
  viability, T/C: 61.9%
[26]
  viability, T/C: 73.8%
[27]
  viability, T/C: 64.6%
[28]
  viability, T/C: 70.1%
[29]
  viability, T/C: 67.5%
[30]
  viability, T/C: 75.3%

## CC(C)CC(NC(=O)CNC(=O)c1cc(Cl)ccc1Cl)B1OC(=O)CC(CC(=O)O)(C(=O)O)O1 (stereo not given) + CC(C)NCC(C(=O)N1CCN(c2ncnc3c2C(C)CC3O)CC1)c1ccc(Cl)cc1
Second compound 0.3 µM
  IC50: 53.9 nM
Second compound 0.949 µM
  IC50: 52.3 nM
Second compound 3 µM
  IC50: 42.1 nM
Second compound 9.49 µM
  IC50: 31.7 nM
Second compound 30 µM
  IC50: 17.5 nM
[31]
  viability, T/C: 112%
[32]
  viability, T/C: 103%
[33]
  viability, T/C: 102%
[34]
  viability, T/C: 106%
[1]
  viability, T/C: 81.2%
[2]
  viability, T/C: 14.1%
[35]
  viability, T/C: 112%
[36]
  viability, T/C: 95.7%
[37]
  viability, T/C: 101%
[38]
  viability, T/C: 91.3%
[7]
  viability, T/C: 82.1%
[8]
  viability, T/C: 12%
[39]
  viability, T/C: 90.4%
[40]
  viability, T/C: 89.6%
[41]
  viability, T/C: 84.3%
[42]
  viability, T/C: 79.4%
[13]
  viability, T/C: 64.4%
[14]
  viability, T/C: 10.9%
[43]
  viability, T/C: 74.6%
[44]
  viability, T/C: 84.8%
[45]
  viability, T/C: 65.1%
[46]
  viability, T/C: 71.7%
[19]
  viability, T/C: 49.2%
[20]
  viability, T/C: 13.5%
[47]
  viability, T/C: 68.2%
[48]
  viability, T/C: 84.8%
[49]
  viability, T/C: 60.5%
[50]
  viability, T/C: 63.7%
[25]
  viability, T/C: 38.3%
[26]
  viability, T/C: 17.2%

## CC(C)n1nc(-c2ccc3oc(N)nc3c2)c2c(N)ncnc21 + CC(C)NCC(C(=O)N1CCN(c2ncnc3c2C(C)CC3O)CC1)c1ccc(Cl)cc1
Second compound 0.3 µM
  IC50: > 100 nM
Second compound 0.949 µM
  IC50: > 100 nM
Second compound 3 µM
  IC50: > 100 nM
Second compound 9.49 µM
  IC50: > 100 nM
Second compound 30 µM
  IC50: > 100 nM
[31]
  viability, T/C: 112%
[32]
  viability, T/C: 98.7%
[33]
  viability, T/C: 89.5%
[34]
  viability, T/C: 90.6%
[1]
  viability, T/C: 78.2%
[2]
  viability, T/C: 60.8%
[35]
  viability, T/C: 104%
[36]
  viability, T/C: 84.9%
[37]
  viability, T/C: 83.9%
[38]
  viability, T/C: 68.1%
[7]
  viability, T/C: 65.3%
[8]
  viability, T/C: 57.2%
[39]
  viability, T/C: 84.7%
[40]
  viability, T/C: 81.8%
[41]
  viability, T/C: 72.4%
[42]
  viability, T/C: 63.4%
[13]
  viability, T/C: 69.5%
[14]
  viability, T/C: 58.9%
[43]
  viability, T/C: 74.8%
[44]
  viability, T/C: 77.1%
[45]
  viability, T/C: 74.6%
[46]
  viability, T/C: 70.1%
[19]
  viability, T/C: 66.5%
[20]
  viability, T/C: 60.1%
[47]
  viability, T/C: 61.4%
[48]
  viability, T/C: 64.7%
[49]
  viability, T/C: 59%
[50]
  viability, T/C: 64.5%
[25]
  viability, T/C: 78.5%
[26]
  viability, T/C: 59.7%

## CCCS(=O)(=O)Nc1ccc(F)c(C(=O)c2c[nH]c3ncc(-c4ccc(Cl)cc4)cc23)c1F + CC(C)NCC(C(=O)N1CCN(c2ncnc3c2C(C)CC3O)CC1)c1ccc(Cl)cc1
Second compound 0.3 µM
  IC50: > 100000 nM
Second compound 0.949 µM
  IC50: > 100000 nM
Second compound 3 µM
  IC50: > 100000 nM
Second compound 9.49 µM
  IC50: > 100000 nM
Second compound 30 µM
  IC50: > 100000 nM
[3]
  viability, T/C: 83.8%
[4]
  viability, T/C: 99.5%
[5]
  viability, T/C: 96.9%
[6]
  viability, T/C: 102%
Second compound 0.3 µM, first compound 31.6 µM
  viability, T/C: 95.7%
Second compound 0.3 µM, first compound 100 µM
  viability, T/C: 120%
[9]
  viability, T/C: 86.9%
[10]
  viability, T/C: 89.7%
[11]
  viability, T/C: 86.4%
[12]
  viability, T/C: 69.3%
Second compound 0.949 µM, first compound 31.6 µM
  viability, T/C: 87.2%
Second compound 0.949 µM, first compound 100 µM
  viability, T/C: 86.9%
[15]
  viability, T/C: 72.7%
[16]
  viability, T/C: 77.3%
[17]
  viability, T/C: 91.2%
[18]
  viability, T/C: 76.9%
Second compound 3 µM, first compound 31.6 µM
  viability, T/C: 68.7%
Second compound 3 µM, first compound 100 µM
  viability, T/C: 74.5%
[21]
  viability, T/C: 63.8%
[22]
  viability, T/C: 70%
[23]
  viability, T/C: 72.2%
[24]
  viability, T/C: 62.8%
Second compound 9.49 µM, first compound 31.6 µM
  viability, T/C: 92.2%
Second compound 9.49 µM, first compound 100 µM
  viability, T/C: 68.8%
[27]
  viability, T/C: 68.4%
[28]
  viability, T/C: 61.8%
[29]
  viability, T/C: 79%
[30]
  viability, T/C: 72.1%
Second compound 30 µM, first compound 31.6 µM
  viability, T/C: 59.5%
Second compound 30 µM, first compound 100 µM
  viability, T/C: 63.5%
